We go through 29 compounds from US12636385B2, “Selective ligands for tau aggregates” (Sentonix, Inc., priority 2018, dated 2026).

Data set [1] deals with T1, 0N4R Tau fibrils (Homo sapiens, UniProt P10636).
T1 construct: made in house
The data set can be described thus: ^3H-THK5117 competition binding to tau fibrils in vitro. As to conditions: for Selectivity for tau relative to Aβ: calculated from [^3H]-THK5117 tau and [^3H]-AZD2184 Aβ assays. As to the method:
Preparation of recombinant 0N4R Tau fibrils was performed as previously described in Morozova, O. A., Biochemistry (2013), Vol., 52(40), pages 6960-6967. Competition binding experiments to 0N4R Tau fibrils were performed by incubating increasing concentrations [10^−10-10^−6 M] of the Example compounds of the invention, or the known tau specific ligand PBB3 (PBB3 was synthesized as previously described in M. Maruyama, et al, Neuron 2013, 79, 1094-1108) or MK6240 (Novandi Chemistry AB), in the presence of 3 nM of the known tau ligand [^3H]-THK5117 (Novandi Chemistry) and 0.2 mM 0N4R tau fibrils in binding buffer (50 mM Tris-HCl, pH 7.4, 0.1% BSA) for 1 h in the dark, and at 22° C. The incubation was terminated by filtration through a Whatman GF/B glass filter (Whatman International, Kent, UK) using a Brandel cell harvester. The filter was then washed rapidly four times with 3 mL of ice-cold wash buffer (5 mM Tris-HCl, 0.25 mM NaCl, 5% EtOH), and equilibrated for 1 h in scintillation vials containing 5 mL of Ultima Gold scintillation fluid before being analysed using a Liquid Scintillation Analyzer.
The results are shown in Table 2 in the column labeled “Tau IC50”.
Relative selectivity for tau compared to Aβ for the exemplified compounds was calculated using the results for the [^3H]-THK5117 tau and [^3H]-AZD2184 Aβ assays described above. The calculated results are shown in Table 2 in the column labeled “Selectivity for tau relative to Aβ”.

Data set [2] deals with T1, 0N4R Tau fibrils. The data set can be described thus: In vitro competitive binding to 0N4R tau fibrils in the presence of [^3H]-Example Compound 68 (FIG. 1).
Data set [3] has as its target T2, Aβ(1-42) amyloid fibrils (Homo sapiens, UniProt P05067).
T2 construct: Aβ(1-42) amyloid fibrils
The data set can be described thus: ^3H-AZD2184 competition binding to Aβ(1-42) fibrils in vitro. As to conditions: [^3H]-AZD2184, Aβ(1-42) amyloid fibrils; average if run more than once. The protocol: Competition binding experiments to Aβ(1-42) amyloid fibrils were performed as previously described in Jureus, A., et al, Journal of Neurochemistry (2010), Vol. 114, pages 784-794 for the Example compounds of the invention indicated in Table 2, or the known tau specific ligand PBB3 (PBB3 was synthesized as previously described in M. Maruyama, et al, Neuron 2013, 79, 1094-1108).
The results are shown in Table 2 in the column labeled “Aβ IC50”.

Data set [4] in a line: Rat brain cassette exposure study. In kind it is in vivo, Sprague Dawley rat. As to conditions: intravenous cassette dosing. The protocol: The in vivo pharmacokinetic characteristics of the example compounds of the invention were compared directly with the known beta-amyloid specific ligand AZD2184 (Johnson, A. E., et al, Journal of Neurochemistry (2009), Vol. 108, pages 1177-1186). Rat brain exposure to three compounds of the invention and AZD2184 was measured by intravenous cassette dosing three test compound: Example Compound 43, Example Compound 47 and Example Compound 48; and AZD2184 (Novandi Chemistry) (concentration of 0.25 μmol/mL each) using the procedure previously described in Johnson, A. E., et al, Journal of Neurochemistry (2009), Vol. 108, pages 1177-1186. 6 male Sprague Dawley rat were used in the experiments, three rats per time point (2 min and 30 min).

The mark [5] stands for this setting: 3 nM [^3H]-THK5117, recombinant 0N4R tau fibrils, average if run more than once.

T1 sequence (P10636 1-383 isoform P10636-6): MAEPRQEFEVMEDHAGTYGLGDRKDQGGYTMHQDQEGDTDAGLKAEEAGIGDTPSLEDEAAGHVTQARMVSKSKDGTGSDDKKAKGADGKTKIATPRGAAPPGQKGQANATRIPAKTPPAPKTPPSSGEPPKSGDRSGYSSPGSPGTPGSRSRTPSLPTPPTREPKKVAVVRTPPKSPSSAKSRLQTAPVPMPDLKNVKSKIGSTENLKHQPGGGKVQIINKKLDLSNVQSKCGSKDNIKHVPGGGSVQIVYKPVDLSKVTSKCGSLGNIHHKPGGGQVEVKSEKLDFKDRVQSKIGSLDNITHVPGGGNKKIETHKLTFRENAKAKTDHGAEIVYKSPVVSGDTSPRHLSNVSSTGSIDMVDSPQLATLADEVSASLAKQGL
T2 sequence (P05067 672-713): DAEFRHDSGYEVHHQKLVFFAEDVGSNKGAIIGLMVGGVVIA

On to `CNc1ccc(/C=C/C=C/c2nc3ccc(O)cc3s2)cn1` [PBB3, reference compound], for which the “Selectivity for tau relative to Aβ” value in data set [1] is 4. Moreover, the “tau binding site shared (competition with [^3H]-Example Compound 68)” value (“tau binding site shared” below) in data set [2] is given as “share the same binding site”.
Take `COc1ccc2[nH]c(-c3ccc(N4CCC(CO)CC4)nc3F)cc2c1` [Compound 47]: the concentration for half-maximal inhibition (IC50) in data set [1] (setting [5]) was 2 nM; in data set [3], 33 nM. In addition, the “Selectivity for tau relative to Aβ” value in data set [1] is recorded as 17.
The like results for `OCCC1CCN(c2ncc(-c3nc4ccc(O)cc4s3)cn2)CC1` [Compound 38] were, in that order, 6 nM, 250 nM and 42.
The like results for `COC(=O)C1CCN(c2ccc(-c3cc4cc(O)ccc4[nH]3)c(F)n2)CC1` [Compound 67] were, in that order, 4 nM, 32 nM and 8.
Regarding `COc1ccc2[nH]c(-c3ccc(N4CCC(CO)CC4)nc3F)cc2c1` [Example Compound 47, {1-[6-Fluoro-5-(5-methoxy-1H-indol-2-yl)pyridin-2-yl]piperidin-4-yl}methanol], the “clearance from normal rat brain tissue” value in data set [4] (2 min and 30 min) is on record as “rapidly cleared”. In addition, in data set [4] (male, Sprague Dawley, rat, brain, samples at 2 min and 30 min, read-out: calculated half-life (t1/2) in rat brain tissue), the half-life is 15.8 min.
Regarding `OCC1CCN(c2ncc(-c3nc4ccc(O)cc4s3)cn2)CC1` [Compound 57], the half-maximal inhibitory concentration (IC50) stood at 12 nM in data set [1] (setting [5]) and 302 nM in data set [3]. Further, in data set [1], the “Selectivity for tau relative to Aβ” value is reported as 25.
Taken in the same sequence, the figures for `NC(=O)C1CCN(c2ccc(-c3cc4cc(O)ccc4[nH]3)c(F)n2)CC1` [Compound 66] were 21 nM, 272 nM and 13.
As for `COc1ccc2nc(-c3ccc(N4CCC(OCCO)CC4)nc3)sc2c1` [Compound 23], the half-inhibitory concentration (IC50) in data set [1] (setting [5]) and in data set [3] was 4 nM throughout. In addition, the “Selectivity for tau relative to Aβ” value in data set [1] is recorded as 1.
Turning to `OCC1CCN(c2ncc(-c3nc4ccc(OCCF)cc4s3)cn2)CC1` [Compound 58], the figures for the IC50 in data set [1] (setting [5]) and in data set [3] were 6 nM and 37 nM, respectively. Moreover, the “Selectivity for tau relative to Aβ” value in data set [1] is reported as 6.2.
Taken in the same sequence, the figures for `N#Cc1ccc2nc(-c3cnc(N4CCC(CCO)CC4)nc3)sc2c1` [Compound 40] were 6 nM, 70 nM and 12.
Taken in the same sequence, the figures for `FCCCCOC1CCN(c2ccc(-c3nc4ccccc4s3)cn2)CC1` [Compound 5] were 5 nM, 24 nM and 4.8.
Taken in the same sequence, the figures for `COc1ccc2nc(-c3cnc(N4CCC(CCO)CC4)nc3)sc2c1` [Compound 25] were 3 nM, 65 nM and 22.
For `Nc1c(F)ccc2cnc(-n3ccc4ccncc43)cc12` [MK-6240, reference compound], in data set [1] (setting [5]), the half-maximal inhibitory concentration (IC50) is over 1000 nM and the “Tau IC50” value is “inactive”. In data set [2], the “tau binding site shared” value is listed as “does not share the same binding site”.
Turning to `OCCC1CCN(c2ncc(-c3cc4ccccc4o3)cn2)CC1` [Compound 28], the IC50 in data set [1] (setting [5]) worked out at 10 nM; in data set [3] it was 15 nM. Besides, in data set [1], the “Selectivity for tau relative to Aβ” value is on record as 1.5.
On to `OCCC1CCN(c2ccc(-c3nc4ccccc4s3)cn2)CC1` [Compound 7], for which the concentration for half-maximal inhibition (IC50) in data set [1] (setting [5]) is 7 nM; in data set [3], 15 nM. Further, the “Selectivity for tau relative to Aβ” value in data set [1] is on record as 2.1.
Taken in the same sequence, the figures for `FCCOCCOCCOC1CCN(c2ncc(-c3cc4ccccc4o3)cn2)CC1` [Compound 33] were 28 nM, 6 nM and 0.2.
Taken in the same sequence, the figures for `OCC1CCN(c2ccc(-c3nc4ccc(OCCF)cc4o3)cn2)CC1` [Compound 62, (1-{5-[6-(2-Fluoroethoxy)-1,3-benzoxazol-2-yl]pyridin-2-yl}piperidin-4-yl)methanol] were 22 nM, 9 nM and 0.4.
On to `COc1ncc2cc(-c3ccc(N4CCC(CO)CC4)nc3F)[nH]c2n1` [Compound 76, [1-(6-Fluoro-5-{2-methoxy-7H-pyrrolo[2,3-d]pyrimidin-6-yl}pyridin-2-yl)piperidin-4-yl]methanol], for which the IC50 in data set [1] (setting [5]) stood at 9 nM; in data set [3] it was 322 nM. For the same compound, in data set [1], the “Selectivity for tau relative to Aβ” value was 36.
As for `COc1ccc2nc(-c3ccc(N4CCC(CCO)CC4)nc3)sc2c1` [Compound 21], the 50% inhibitory concentration (IC50) turned out to be 5 nM in data set [1] (setting [5]) and 70 nM in data set [3]. Besides, in data set [1], the “Selectivity for tau relative to Aβ” value is recorded as 14.
The like results for `FCCC1CCN(c2ncc(-c3cn4ccccc4n3)cn2)CC1` [Compound 52] were, in that order, 49 nM, 84 nM and 1.7.
Taken in the same sequence, the figures for `COc1ccc2[nH]c(-c3ccc(N4CCC(C(N)=O)CC4)nc3F)cc2c1` [Compound 68] were 7 nM, 72 nM and 10.
With `OCCC1CCN(c2ccc(-c3nc4ccc(O)cc4s3)cn2)CC1` [Compound 36], the 50% inhibitory concentration (IC50) in data set [1] (setting [5]) turned out to be 3 nM; in data set [3], 91 nM. In data set [1], the “Selectivity for tau relative to Aβ” value was 30.
Taken in the same sequence, the figures for `OCCC1CCN(c2ccc(-c3cc4ccccc4o3)cn2)CC1` [Compound 27] were 7 nM, 34 nM and 4.9.
The like results for `FCCCCOCC1CCN(c2ccc(-c3nc4ccccc4s3)cn2)CC1` [Compound 3] were, in that order, 11 nM, 43 nM and 3.9.
On to `NC(=O)c1ccc2nc(-c3cnc(N4CCC(CCF)CC4)nc3)sc2c1` [Compound 43], for which the IC50 in data set [1] (setting [5]) turned out to be 4 nM; in data set [3], 72 nM. The “Selectivity for tau relative to Aβ” value in data set [1] was 18.
In the case of `COc1ccc2[nH]c(-c3ccc(N4CCC(C(N)=O)CC4)nc3F)cc2c1` [Example Compound 68, 1-[6-Fluoro-5-(5-methoxy-1H-indol-2-yl)pyridin-2-yl]piperidine-4-carboxamide], in data set [2], the “tau binding site shared” value is “share the same binding site”.
As to `FCCC1CCN(c2ncc(-c3cc4ccccc4o3)cn2)CC1` [Compound 30], the figures for the IC50 in data set [1] (setting [5]) and in data set [3] were 12 nM and 25 nM, respectively. For the same compound, the “Selectivity for tau relative to Aβ” value in data set [1] is 2.1.
On to `Oc1ccc2[nH]c(-c3cnc(N4CCC(CF)CC4)nc3)cc2c1` [Compound 69, 2-{2-[4-(Fluoromethyl)piperidin-1-yl]pyrimidin-5-yl}-1H-indol-5-ol], for which the IC50 in data set [1] (setting [5]) was determined as 10 nM; in data set [3], 169 nM. In addition, the “Selectivity for tau relative to Aβ” value in data set [1] is on record as 17.
The like results for `COc1ccc2nc(-c3cnc(N4CCC(CCF)CC4)nc3)cn2c1` [Compound 53] were, in that order, 14 nM, 37 nM and 2.6.
